The text below walks through data of patent publication US11517568B2, “Compounds and methods for treating nematode infections” (The Governing Council of The University of Toronto, priority 2018, dated 2022).

The first data set deals with HEK293 cells. As to the kind of experiment: HEK293 cell proliferation, Celltiter Blue Cell Viability Assay. Particulars: dose-response, 48 hours, triplicates. In kind it is cell-based. As to the method: A cytotoxic formulation was used as positive control. Experiments were performed in triplicates on different days. […] Error bars indicate standard deviation.
(In general: Resazurin is reduced to fluorescent resorufin, in cell work by metabolically active cells.)
Take `O=[N+]([O-])c1ccc(N2CCN(CC3CCCCC3)CC2)cc1` [Compound Ia]: the “effect on HEK293 cell proliferation” value was “no effect”.

The next data set relates to C. elegans. Briefly: Suppression of aldicarb-induced paralysis in C. elegans. The conditions noted are these: Caenorhabditis elegans. It is filed as in vivo. As to the method: Whether exemplary compound Ia can suppress the paralysis that is induced by aldicarb was tested. Aldicarb inhibits acetylcholinesterase, which normally catabolizes ACh at the synaptic cleft. […] Aldicarb treatment therefore results in excess ACh and paralyzes the animal due to excess muscle contraction. If exemplary compound Ia inhibits UNC-17 and results in lower levels of ACh at the synaptic cleft, then exemplary compound Ia should reduce aldicarb-induced paralysis.
For `O=[N+]([O-])c1ccc(N2CCN(CC3CCCCC3)CC2)cc1` [Compound Ia], the EC50 stood at 4.81 µM.

For the next data set, the system named is fish. As to the kind of experiment: Dose-response analysis in fish, cardiac defects. In kind it is in vivo.
Conditions: not given
Turning to `O=[N+]([O-])c1ccc(N2CCN(CC3CC=CCC3)CC2)cc1` (stereo not drawn) [Ie], the “cardiac defects in fish” value is listed as “strongest cardiac defects”.
Still for that read-out and setting: the same measure for `O=[N+]([O-])c1ccc(N2CCN(CC3CCCCC3)CC2)cc1` [Compound Ia]: “weakest cardiac defects”.

A further data set deals with UNC-17 (VAChT), unc-17 mutant strains.
Test: not given
It is filed as in vivo, Caenorhabditis elegans. Particulars: p=0.001.
For `O[C@@H]1CCCC[C@H]1N1CCC(c2ccccc2)CC1` (racemic) [Vesamicol, reference compound], the “sensitivity of unc-17(md414) (C370Y) mutant” value is given as “partially resistant”.

The test system of another data set is C. elegans. Briefly: Forward genetic screens for mutants resisting early larval lethal effects. The conditions noted are these: over 200,000 F1 and over 100,000 F2 animals screened. In kind it is in vivo, Caenorhabditis elegans. As to the method: Forward genetic screens were performed for mutants that can resist the early larval lethal effects of compound Ic and compound Id. Over 200,000 F1 animals and over 100,000 F2 animals from randomly mutagenized parents/grandparents were screened.
Consider `O=[N+]([O-])c1ccc(N2CCN(CC3CC4C=CC3C4)CC2)cc1` (stereo not drawn) [Compound Id], for which the “mutants resisting early larval lethal effects” value was “No mutants that could resist the lethal effects”.

The subject of another data set is wild type C. elegans. As to the kind of experiment: Manual monitoring of locomotion phenotype of wild type C. elegans on solid agar containing the small molecule. Particulars: compared with vesamicol. In kind it is in vivo, Caenorhabditis elegans. From the text: The ability of the 64 Egl hits to modulate the normal sinusoidal locomotion of wild type C. elegans was then examined. The animal's behaviour over the course of several hours was manually monitored while the animal moved atop a solid agar substrate containing the small molecule. Many different genes govern the sinusoidal locomotion of wild type C. elegans, but their mutation can lead to qualitatively distinct locomotory phenotypes.
Turning to `O=[N+]([O-])c1ccc(N2CCN(CC3CCCCC3)CC2)cc1` [Compound Ia], the “potency for inducing locomotory defects in worms relative to vesamicol” value was “more than 30 times”.

Still in this data set, the particulars now being: solid agar substrate.
In the case of `O=[N+]([O-])c1ccc(N2CCN(CC3CC=CCC3)CC2)cc1` (stereo not drawn) [Ie], the locomotory phenotype induced entry is “‘severe’ snake-like coiler phenotype and paralysis”.
Still for that read-out and setting: the entry for `O[C@@H]1CCCC[C@H]1N1CCC(c2ccccc2)CC1` (racemic) [Vesamicol, reference compound] is “jerky-unc and coiling, but only at concentrations close to its limit of solubility”; for `O=[N+]([O-])c1ccc(N2CCN(CC3CC4C=CC3C4)CC2)cc1` (stereo not drawn) [Compound Id] it is “‘jerky-unc’ phenotype”.

The next data set deals with wild type fourth-stage C. elegans larvae (L4s). Briefly: Locomotory defects (coiled and/or paralysis) in wild type fourth-stage C. elegans larvae on solid substrate. It is filed as in vivo, Caenorhabditis elegans. Particulars: 60 μM, after 60 min on solid substrate, L4 C. elegans. As to the method:
A preliminary first round of SAR analyses using analogs of exemplary compound Ia was performed and the analogs' ability to induce locomotory defects in wild type fourth-stage C. elegans larvae (L4s) was tested.
If phenotype is observed, a dose-response analysis is performed.
Turning to `O=[N+]([O-])c1ccc(N2CCN(CC3CC=CCC3)CC2)cc1` (stereo not drawn) [Ie], the “Activity (%): percent of animals that show coiled and/or paralysis” value was 19% +/− 8.0.
On the same count and under the same terms, the figure for `O=[N+]([O-])c1ccc(N2CCN(CC3CCCCC3)CC2)cc1` [Compound Ia] is 90% +/− 5.4; for `O[C@@H]1CCCC[C@H]1N1CCC(c2ccccc2)CC1` (racemic) [Vesamicol, reference compound] it is 6% +/− 0.1.
Still for that read-out and setting: the figure for `O=[N+]([O-])c1ccc(N2CCN(CC3CC4C=CC3C4)CC2)cc1` (stereo not drawn) [Compound Id] is 0.00%.

The data set is the same for the next values; noted with them: Caenorhabditis elegans, read-out: EC50 (coiled and/or paralysis, dose-response).
Turning to `O=[N+]([O-])c1ccc(N2CCN(CC3CCCCC3)CC2)cc1` [Compound Ia], the EC50 was 12.8 µM.

The next data set has as its system L3 animals. Briefly: Abnormal locomotory behaviour of L3 animals on solid agar (extended SAR). It is filed as in vivo, Caenorhabditis elegans. The conditions noted are these: 3.75 uM, 1 h exposure, L3, mean of 4 replicates. Here is the method: 20 animals were scored after either 1, 6 or 24 hours of exposure to drug (as indicated) per replicate. […] Data are reported as the mean % of animals with abnormal phenotype over 4 independent replicates.
As to `O=[N+]([O-])c1ccc(N2CCN(CC3CC=CCC3)CC2)cc1` (stereo not drawn) [Ie], the “% any phene 1 h (conc.) 3.75” value was 15.0%.
For the molecule `O=[N+]([O-])c1ccc(N2CCN(CC3CC4C=CC3C4)CC2)cc1` (stereo not drawn) [Compound Id], the “% any phene 1 h (conc.) 3.75” value amounted to 19.2%.

Staying with this data set, now noted: 3.75 uM, 6 h exposure, L3, mean of 4 replicates.
As for `O=[N+]([O-])c1ccc(N2CCN(CC3CC=CCC3)CC2)cc1` (stereo not drawn) [Ie], the “% any phene 6 h (conc.) 3.75” value is given as 0.0%.
Take `O=[N+]([O-])c1ccc(N2CCN(CC3CC4C=CC3C4)CC2)cc1` (stereo not drawn) [Compound Id]: the “% any phene 6 h (conc.) 3.75” value came out at 5.8%.

Staying with this data set, now noted: 3.75 uM, 24 h exposure, L3, mean of 4 replicates.
Regarding `O=[N+]([O-])c1ccc(N2CCN(CC3CC=CCC3)CC2)cc1` (stereo not drawn) [Ie], the “% any phene 24 h (conc.) 3.75” value is 0.0%.
As to `O=[N+]([O-])c1ccc(N2CCN(CC3CC4C=CC3C4)CC2)cc1` (stereo not drawn) [Compound Id], the “% any phene 24 h (conc.) 3.75” value was determined as 0.0%.

The data set is the same for the next values; noted with them: 15 uM, 1 h exposure, L3, mean of 4 replicates.
As to `O=[N+]([O-])c1ccc(N2CCN(CC3CC=CCC3)CC2)cc1` (stereo not drawn) [Ie], the “% any phene 1 h (conc.) 15” value stood at 45.0%.
In the case of `O=[N+]([O-])c1ccc(N2CCN(CC3CC4C=CC3C4)CC2)cc1` (stereo not drawn) [Compound Id], the “% any phene 1 h (conc.) 15” value is reported as 65.5%.

Staying with this data set, now noted: 15 uM, 6 h exposure, L3, mean of 4 replicates.
Turning to `O=[N+]([O-])c1ccc(N2CCN(CC3CC=CCC3)CC2)cc1` (stereo not drawn) [Ie], the “% any phene 6 h (conc.) 15” value worked out at 56.7%.
For the molecule `O=[N+]([O-])c1ccc(N2CCN(CC3CC4C=CC3C4)CC2)cc1` (stereo not drawn) [Compound Id], the “% any phene 6 h (conc.) 15” value was found to be 36.7%.

Still in this data set, the particulars now being: 15 uM, 24 h exposure, L3, mean of 4 replicates.
As for `O=[N+]([O-])c1ccc(N2CCN(CC3CC=CCC3)CC2)cc1` (stereo not drawn) [Ie], the “% any phene 24 h (conc.) 15” value is on record as 0.0%.
Regarding `O=[N+]([O-])c1ccc(N2CCN(CC3CC4C=CC3C4)CC2)cc1` (stereo not drawn) [Compound Id], the “% any phene 24 h (conc.) 15” value was found to be 45.0%.

The same data set, now with this note: 60 uM, 1 h exposure, L3, mean of 4 replicates.
With `O=[N+]([O-])c1ccc(N2CCN(CC3CC=CCC3)CC2)cc1` (stereo not drawn) [Ie], the “% any phene 1 h (conc.) 60” value was found to be 94.2%.
Still for that read-out and setting: the same measure for `O=[N+]([O-])c1ccc(N2CCN(CC3CC4C=CC3C4)CC2)cc1` (stereo not drawn) [Compound Id]: 95.8%.

The data set is the same for the next values; noted with them: 60 uM, 6 h exposure, L3, mean of 4 replicates.
On to `O=[N+]([O-])c1ccc(N2CCN(CC3CC=CCC3)CC2)cc1` (stereo not drawn) [Ie], for which the “% any phene 6 h (conc.) 60” value is reported as 80.8%.
Same read-out and setting: the same measure for `O=[N+]([O-])c1ccc(N2CCN(CC3CC4C=CC3C4)CC2)cc1` (stereo not drawn) [Compound Id]: 100.0%.

The same data set, now with this note: 60 uM, 24 h exposure, L3, mean of 4 replicates.
For `O=[N+]([O-])c1ccc(N2CCN(CC3CC=CCC3)CC2)cc1` (stereo not drawn) [Ie], the “% any phene 24 h (conc.) 60” value amounted to 57.5%.
On the same count and under the same terms, the same measure for `O=[N+]([O-])c1ccc(N2CCN(CC3CC4C=CC3C4)CC2)cc1` (stereo not drawn) [Compound Id]: 95.8%.

The same data set, now with this note: Caenorhabditis elegans, 1 h, read-out: % any phene 1 h (conc.) 3.75.
Take `O=[N+]([O-])c1ccc(N2CCN(CC3CCCCC3)CC2)cc1` [Compound Ia]: the pest or weed control at 3.75 µM came out at 42.5%.
Same read-out and setting: the figure for `O[C@@H]1CCCC[C@H]1N1CCC(c2ccccc2)CC1` (racemic) [Vesamicol, reference compound] is 0%.

The same data set, now with this note: Caenorhabditis elegans, 1 h, read-out: % any phene 1 h (conc.) 15.
`O=[N+]([O-])c1ccc(N2CCN(CC3CCCCC3)CC2)cc1` [Compound Ia]: the pest or weed control at 15 µM came to 91%.
The same measure, in the same setting: the figure for `O[C@@H]1CCCC[C@H]1N1CCC(c2ccccc2)CC1` (racemic) [Vesamicol, reference compound] is 0%.

Staying with this data set, now noted: Caenorhabditis elegans, 1 h, read-out: % any phene 1 h (conc.) 60.
As for `O=[N+]([O-])c1ccc(N2CCN(CC3CCCCC3)CC2)cc1` [Compound Ia], the pest or weed control at 60 µM was 100%.
For the molecule `O[C@@H]1CCCC[C@H]1N1CCC(c2ccccc2)CC1` (racemic) [Vesamicol, reference compound], the pest or weed control at 60 µM came to 11.7%.

Still in this data set, the particulars now being: Caenorhabditis elegans, 6 h, read-out: % any phene 6 h (conc.) 3.75.
In the case of `O=[N+]([O-])c1ccc(N2CCN(CC3CCCCC3)CC2)cc1` [Compound Ia], the pest or weed control at 3.75 µM was 22.5%.
As for `O[C@@H]1CCCC[C@H]1N1CCC(c2ccccc2)CC1` (racemic) [Vesamicol, reference compound], the pest or weed control at 3.75 µM came to 0%.

The data set is the same for the next values; noted with them: Caenorhabditis elegans, 6 h, read-out: % any phene 6 h (conc.) 15.
For `O=[N+]([O-])c1ccc(N2CCN(CC3CCCCC3)CC2)cc1` [Compound Ia], the pest or weed control at 15 µM turned out to be 64.2%.
The same measure, in the same setting: the figure for `O[C@@H]1CCCC[C@H]1N1CCC(c2ccccc2)CC1` (racemic) [Vesamicol, reference compound] is 0.8%.

Still in this data set, the particulars now being: Caenorhabditis elegans, 6 h, read-out: % any phene 6 h (conc.) 60.
For `O=[N+]([O-])c1ccc(N2CCN(CC3CCCCC3)CC2)cc1` [Compound Ia], the pest or weed control at 60 µM was 100%.
Regarding `O[C@@H]1CCCC[C@H]1N1CCC(c2ccccc2)CC1` (racemic) [Vesamicol, reference compound], the pest or weed control at 60 µM was determined as 1.7%.

Staying with this data set, now noted: Caenorhabditis elegans, 24 h, read-out: % any phene 24 h (conc.) 3.75.
Regarding `O=[N+]([O-])c1ccc(N2CCN(CC3CCCCC3)CC2)cc1` [Compound Ia], the pest or weed control at 3.75 µM turned out to be 0%.
On the same count and under the same terms, the same measure for `O[C@@H]1CCCC[C@H]1N1CCC(c2ccccc2)CC1` (racemic) [Vesamicol, reference compound]: 0%.

Staying with this data set, now noted: Caenorhabditis elegans, 24 h, read-out: % any phene 24 h (conc.) 15.
As to `O=[N+]([O-])c1ccc(N2CCN(CC3CCCCC3)CC2)cc1` [Compound Ia], the pest or weed control at 15 µM turned out to be 34.2%.
Take `O[C@@H]1CCCC[C@H]1N1CCC(c2ccccc2)CC1` (racemic) [Vesamicol, reference compound]: the pest or weed control at 15 µM stood at 0%.

The data set is the same for the next values; noted with them: Caenorhabditis elegans, 24 h, read-out: % any phene 24 h (conc.) 60.
In the case of `O=[N+]([O-])c1ccc(N2CCN(CC3CCCCC3)CC2)cc1` [Compound Ia], the pest or weed control at 60 µM came to 80%.
Same read-out and setting: the figure for `O[C@@H]1CCCC[C@H]1N1CCC(c2ccccc2)CC1` (racemic) [Vesamicol, reference compound] is 0%.
